The results in this text go back to ChEMBL document CHEMBL4373715, “Discovery and Biological Evaluations of Halogenated 2,4-Diphenyl Indeno[1,2-b]pyridinol Derivatives as Potent Topoisomerase IIα-Targeted Chemotherapeutic Agents for Breast Cancer” (J Med Chem, 2019).

Some results are limits rather than exact numbers.

The target in test [1] is DNA topoisomerase 2-alpha (Homo sapiens) (UniProt P11388). As to the kind of experiment: Inhibition of recombinant human topoisomerase 2alpha-mediated relaxation of supercoiled pBR322 DNA at 20 uM measured after 30 mins by ethidium bromide staining based agarose gel electrophoresis relative to control.
Chain of DNA topoisomerase 2-alpha (Homo sapiens) (P11388 whole entry): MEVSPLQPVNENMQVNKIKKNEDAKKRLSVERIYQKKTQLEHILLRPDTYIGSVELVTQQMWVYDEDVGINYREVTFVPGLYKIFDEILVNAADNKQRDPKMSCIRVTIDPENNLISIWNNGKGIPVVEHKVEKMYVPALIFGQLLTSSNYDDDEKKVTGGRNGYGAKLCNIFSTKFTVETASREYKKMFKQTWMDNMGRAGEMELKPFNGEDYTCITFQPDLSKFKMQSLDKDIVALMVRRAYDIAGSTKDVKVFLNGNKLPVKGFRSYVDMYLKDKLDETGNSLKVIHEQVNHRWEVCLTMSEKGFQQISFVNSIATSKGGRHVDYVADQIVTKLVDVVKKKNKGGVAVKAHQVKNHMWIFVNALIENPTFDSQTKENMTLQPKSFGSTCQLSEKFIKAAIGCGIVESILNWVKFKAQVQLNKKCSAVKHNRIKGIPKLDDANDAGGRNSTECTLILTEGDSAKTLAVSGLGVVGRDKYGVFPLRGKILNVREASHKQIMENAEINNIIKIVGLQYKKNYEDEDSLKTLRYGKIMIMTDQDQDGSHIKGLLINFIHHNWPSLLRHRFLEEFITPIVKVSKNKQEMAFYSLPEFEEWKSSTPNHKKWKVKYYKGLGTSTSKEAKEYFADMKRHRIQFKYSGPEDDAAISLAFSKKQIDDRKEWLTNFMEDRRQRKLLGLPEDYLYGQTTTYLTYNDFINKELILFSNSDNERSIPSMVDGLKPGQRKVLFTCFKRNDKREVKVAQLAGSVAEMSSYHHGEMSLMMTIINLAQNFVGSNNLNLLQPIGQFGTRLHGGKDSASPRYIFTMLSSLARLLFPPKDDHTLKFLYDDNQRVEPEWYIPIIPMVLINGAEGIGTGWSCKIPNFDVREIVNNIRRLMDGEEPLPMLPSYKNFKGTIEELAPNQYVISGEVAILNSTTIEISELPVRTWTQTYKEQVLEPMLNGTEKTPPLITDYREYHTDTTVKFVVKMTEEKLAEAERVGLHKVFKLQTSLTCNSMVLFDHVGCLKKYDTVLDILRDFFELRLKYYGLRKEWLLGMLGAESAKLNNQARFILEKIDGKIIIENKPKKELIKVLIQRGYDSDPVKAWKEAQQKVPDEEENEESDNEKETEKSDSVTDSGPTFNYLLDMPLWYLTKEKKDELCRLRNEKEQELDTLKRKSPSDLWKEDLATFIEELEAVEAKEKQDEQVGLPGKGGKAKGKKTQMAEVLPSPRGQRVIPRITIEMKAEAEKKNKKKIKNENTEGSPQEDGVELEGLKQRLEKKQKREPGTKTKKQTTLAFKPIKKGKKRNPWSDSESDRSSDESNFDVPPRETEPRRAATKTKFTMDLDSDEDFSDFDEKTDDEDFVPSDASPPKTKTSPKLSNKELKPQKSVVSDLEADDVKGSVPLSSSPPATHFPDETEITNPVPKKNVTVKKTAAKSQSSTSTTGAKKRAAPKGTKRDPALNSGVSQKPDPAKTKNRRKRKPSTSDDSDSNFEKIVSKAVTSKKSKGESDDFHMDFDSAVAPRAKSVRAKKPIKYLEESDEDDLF
In another test the test system is HCT-15. As to the kind of experiment: Antiproliferative activity against human HCT15 cells measured after 72 hrs by EZ-Cytox assay. As to conditions: HCT-15, 72 h. The test is classed as functional, cell-based.
The subject of another test is T47D. As to the kind of experiment: Antiproliferative activity against human T47D cells measured after 72 hrs by EZ-Cytox assay. It counts as functional, cell-based.
The next test has as its system HeLa. The test can be described thus: Antiproliferative activity against human HeLa cells measured after 72 hrs by EZ-Cytox assay. The test is classed as functional, cell-based.
Another test relates to DU-145. As to the kind of experiment: Antiproliferative activity against human DU145 cells measured after 72 hrs by EZ-Cytox assay. Particulars: DU-145, 72 h. It counts as functional, cell-based.
The target of test [2] is DNA topoisomerase 2-alpha (Homo sapiens) (UniProt P11388). As to the kind of experiment: Inhibition of recombinant human topoisomerase 2alpha-mediated relaxation of supercoiled pBR322 DNA at 100 uM measured after 30 mins by ethidium bromide staining based agarose gel electrophoresis relative to control.
Test [3] concerns the target T1, DNA topoisomerase 1 (Homo sapiens) (UniProt P11387).
T1 sequence (whole entry): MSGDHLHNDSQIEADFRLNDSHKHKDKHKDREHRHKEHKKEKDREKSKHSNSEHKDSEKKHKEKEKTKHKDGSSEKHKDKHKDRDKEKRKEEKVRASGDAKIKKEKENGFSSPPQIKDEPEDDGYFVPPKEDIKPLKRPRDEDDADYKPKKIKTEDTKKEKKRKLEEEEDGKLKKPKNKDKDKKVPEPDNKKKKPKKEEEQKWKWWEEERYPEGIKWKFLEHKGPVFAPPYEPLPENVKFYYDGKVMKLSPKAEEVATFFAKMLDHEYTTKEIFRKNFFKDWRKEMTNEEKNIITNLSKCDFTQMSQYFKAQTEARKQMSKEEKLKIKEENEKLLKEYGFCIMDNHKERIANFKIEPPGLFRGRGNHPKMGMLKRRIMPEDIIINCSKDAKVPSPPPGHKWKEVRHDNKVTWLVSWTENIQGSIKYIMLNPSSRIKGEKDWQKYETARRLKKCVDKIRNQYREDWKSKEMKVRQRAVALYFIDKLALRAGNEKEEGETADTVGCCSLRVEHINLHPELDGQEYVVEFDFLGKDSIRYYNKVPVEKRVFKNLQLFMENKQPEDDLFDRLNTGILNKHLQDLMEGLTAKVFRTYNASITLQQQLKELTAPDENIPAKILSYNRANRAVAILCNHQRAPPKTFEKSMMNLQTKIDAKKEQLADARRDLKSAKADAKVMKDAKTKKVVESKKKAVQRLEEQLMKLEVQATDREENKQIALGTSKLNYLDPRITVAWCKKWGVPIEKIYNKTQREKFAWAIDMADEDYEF
As to the kind of experiment: Inhibition of recombinant human topoisomerase 1-mediated relaxation of supercoiled pBR322 DNA at 100 uM measured after 30 mins by ethidium bromide staining based agarose gel electrophoresis relative to control.

As for `Oc1ccccc1-c1cc(-c2ccccc2Cl)nc2c1Cc1cccc(O)c1-2`, the inhibition in test [1] came to 3.7%; in test [2], 80.9%; in test [3], 13.4%. The IC50 in the test on HCT-15 was determined as 3.17 µM; in the test on T47D, 0.87 µM; in the test on HeLa, 1.12 µM; with DU-145, 0.29 µM.

Regarding `Oc1ccccc1-c1cc(-c2ccccc2Cl)c2c(n1)-c1cccc(O)c1C2`, the inhibition in test [1] was 1.8%; in test [2], 79.2%; in test [3] it was 23.7%. For the same compound, the IC50 amounted to 4.12 µM with HCT-15, 3.03 µM in the test on T47D, 4.59 µM in the test with HeLa and 4.03 µM with DU-145.

Turning to `Oc1cccc(-c2cc(-c3ccccc3C(F)(F)F)nc3c2Cc2cc(O)ccc2-3)c1`, the inhibition in test [1] was 2.4%; in test [2] it was 80.6%; in test [3], 11.7%. The IC50 in the test with HCT-15 turned out to be 2.82 µM; in the test on T47D, 1.25 µM; in the test on HeLa, 4 µM; in the test with DU-145, 2.5 µM.

For `Oc1ccc(-c2cc(-c3ccccc3Cl)c3c(n2)-c2cc(O)ccc2C3)cc1`, the inhibition in test [1] is 2%; in test [2], 74.8%; in test [3], 4%. The IC50 was determined as 2.91 µM with HCT-15, 1.64 µM with T47D, 6.5 µM in the test on HeLa and 4.65 µM in the test on DU-145.

Consider `Oc1ccccc1-c1cc(-c2ccc(C(F)(F)F)cc2)nc2c1Cc1c(O)cccc1-2`, for which the inhibition in test [1] is 2.4%; in test [2] it was 98.9%; in test [3] it was 0%. Further, the IC50 in the test on HCT-15 was 4.54 µM; with T47D it was 1.33 µM; in the test on HeLa, 6.14 µM; in the test with DU-145 it was 3.46 µM.

On to `Oc1ccc2c(c1)-c1nc(-c3ccccc3Cl)cc(-c3ccccc3O)c1C2`, for which the inhibition in test [1] is 5.8%; in test [2], 76.8%; in test [3] it was 0%. For the same compound, the IC50 in the test with HCT-15 was found to be 4.94 µM; with T47D, 2.84 µM; in the test on HeLa, 6.71 µM; in the test with DU-145 it was 0.77 µM.

Take `Oc1ccc(-c2cc(-c3ccccc3F)nc3c2Cc2cccc(O)c2-3)cc1`: the results for the inhibition in test [1], in test [2] and in test [3] were 1.4%, 47.1% and 11.7%, respectively. For the same compound, the IC50 in the test on HCT-15 was more than 50 µM; in the test with T47D, 47.2 µM; with HeLa it was more than 50 µM; in the test on DU-145, 10.3 µM.

Take `Oc1cccc(-c2cc(-c3cccc(Cl)c3)nc3c2Cc2c(O)cccc2-3)c1`: the inhibition in test [1] is 24.1%; in test [2], 100%; in test [3] it was 0.5%. Further, the IC50 in the test on HCT-15 is 1.13 µM; in the test with T47D, 1.52 µM; with HeLa, 3.31 µM; in the test on DU-145, 1.49 µM.

`Oc1ccc2c(c1)-c1nc(-c3cccc(C(F)(F)F)c3)cc(-c3ccccc3O)c1C2`: the values for the inhibition in test [1], in test [2] and in test [3] were 2.8%, 98.9% and 0%, respectively. Further, the IC50 came out at 2.95 µM in the test with HCT-15, 0.51 µM with T47D, 5.25 µM in the test on HeLa and 1.63 µM in the test on DU-145.

Regarding `Oc1ccc2c(c1)-c1nc(-c3ccc(Cl)cc3)cc(-c3ccccc3O)c1C2`, the inhibition in test [1] came to 25.7%; in test [2], 86.6%; in test [3], 8%. The IC50 in the test with HCT-15 amounted to 1.78 µM; with T47D it was 0.72 µM; in the test on HeLa, 4.61 µM; with DU-145, 0.49 µM.

As to `Oc1ccc(-c2cc(-c3cccc(Cl)c3)c3c(n2)-c2cccc(O)c2C3)cc1`, the inhibition in test [1] was determined as 2.2%; in test [2], 75.3%; in test [3] it was 6.1%. In addition, the IC50 in the test on HCT-15 amounted to 2.39 µM; with T47D, 1.92 µM; with HeLa it was 1.66 µM; in the test on DU-145 it was 1.64 µM.

`Oc1ccc(-c2cc(-c3ccc(Cl)cc3)nc3c2Cc2c(O)cccc2-3)cc1`: the results for the inhibition in test [1], in test [2] and in test [3] were 0%, 59.9% and 6.7%, respectively. Further, the IC50 with HCT-15 amounted to 3 µM; in the test with T47D, 1.15 µM; in the test on HeLa, 4.08 µM; in the test with DU-145, 1.88 µM.

Take `Oc1cccc(-c2cc(-c3cccc(Cl)c3)nc3c2Cc2cccc(O)c2-3)c1`: the values for the inhibition in test [1], in test [2] and in test [3] were 3.4%, 88.6% and 16.9%, respectively. Also, the IC50 in the test on HCT-15 is 2.49 µM; with T47D it was 1.63 µM; with HeLa, 4.59 µM; in the test on DU-145 it was 3.48 µM.

Regarding `Oc1cccc(-c2cc(-c3ccc(Cl)cc3)c3c(n2)-c2cccc(O)c2C3)c1`, the inhibition was found to be 4.4% in test [1], 86.3% in test [2] and 0% in test [3]. The IC50 in the test with HCT-15 amounted to 2.58 µM; in the test with T47D, 2.11 µM; with HeLa, 4.63 µM; in the test with DU-145, 3.94 µM.

Regarding `Oc1cccc(-c2cc(-c3ccc(Cl)cc3)nc3c2Cc2cccc(O)c2-3)c1`, the inhibition in test [1] was found to be 26.5%; in test [2], 85.2%; in test [3], 7.4%. Further, the IC50 worked out at 3.05 µM in the test with HCT-15, 3.5 µM in the test with T47D, 6.74 µM with HeLa and 0.36 µM with DU-145.

Regarding `Oc1ccc(-c2cc(-c3cccc(C(F)(F)F)c3)nc3c2Cc2ccc(O)cc2-3)cc1`, the inhibition was found to be 11.1% in test [1], 87.1% in test [2] and 8.5% in test [3]. For the same compound, the IC50 in the test with HCT-15 came out at 2.77 µM; with T47D, 4.69 µM; with HeLa, 3.06 µM; in the test on DU-145, 2.15 µM.

As for `Oc1cccc(-c2cc(-c3cccc(Cl)c3)c3c(n2)-c2ccc(O)cc2C3)c1`, the figures for the inhibition in test [1], in test [2] and in test [3] were 27%, 83% and 3.7%, respectively. Besides, the IC50 with HCT-15 turned out to be 25.3 µM; with T47D, 22.6 µM; in the test on HeLa, 7.74 µM; with DU-145, 6.29 µM.

`Oc1ccccc1-c1cc(-c2cccc(Cl)c2)nc2c1Cc1cccc(O)c1-2`: the inhibition turned out to be 3.2% in test [1], 80% in test [2] and 13.1% in test [3]. Also, the IC50 came out at 1.31 µM in the test with HCT-15, 0.96 µM with T47D, 3.62 µM in the test with HeLa and 0.22 µM with DU-145.

For `Oc1cccc(-c2cc(-c3ccccc3)c3c(n2)-c2ccc(O)cc2C3)c1`, the inhibition worked out at 3.3% in test [1], 36% in test [2] and 10.2% in test [3]. The IC50 in the test on HCT-15 is 1.3 µM; with T47D it was 4.12 µM; with HeLa, 5.7 µM; in the test on DU-145, 0.27 µM.

Regarding `Oc1cccc(-c2cc(-c3cccc(Cl)c3)nc3c2Cc2cc(O)ccc2-3)c1`, the results for the inhibition in test [1], in test [2] and in test [3] were 37.8%, 80.2% and 0%, respectively. Moreover, the IC50 in the test with HCT-15 came to 1.62 µM; in the test on T47D it was 0.86 µM; in the test on HeLa, 5.99 µM; in the test on DU-145, 3.21 µM.

Take `Oc1cccc(-c2cc(-c3cccc(Cl)c3)nc3c2Cc2ccc(O)cc2-3)c1`: the inhibition in test [1] came to 14.3%; in test [2] it was 90.5%; in test [3], 1.5%. Moreover, the IC50 with HCT-15 came out at 0.84 µM; with T47D, 1.37 µM; in the test on HeLa it was 5.44 µM; in the test on DU-145, 3.28 µM.

What is called inhibition is the change of the read-out against control, counted positive when it falls. In general, IC50 refers to the midpoint of a concentration-inhibition curve. A higher IC50 goes with weaker potency.
